“Also recorded” adds a separate entry of the source. Read-outs that look alike come from different tables or passages of the source.
Legend:
[1] = system: p-eIF2α in human DRG neurons; experiment: p-eIF2α immunocytochemistry in cultured human DRG neurons; assay type: cell-based
Beta1 = target: T1, Beta1 (Homo sapiens, UniProt P08588); experiment: PDSP competitive binding assay; settings: 10 µM test article; read-out: Ki: primary assay inhibition of radioligand binding, Beta1
T1 construct: purchased NIMH Psychoactive Drug Screening Program (PDSP), University of North Carolina at Chapel Hill

NET = NET (Homo sapiens, UniProt P23975); experiment: PDSP competitive binding assay
Sequence of NET (P23975 whole entry): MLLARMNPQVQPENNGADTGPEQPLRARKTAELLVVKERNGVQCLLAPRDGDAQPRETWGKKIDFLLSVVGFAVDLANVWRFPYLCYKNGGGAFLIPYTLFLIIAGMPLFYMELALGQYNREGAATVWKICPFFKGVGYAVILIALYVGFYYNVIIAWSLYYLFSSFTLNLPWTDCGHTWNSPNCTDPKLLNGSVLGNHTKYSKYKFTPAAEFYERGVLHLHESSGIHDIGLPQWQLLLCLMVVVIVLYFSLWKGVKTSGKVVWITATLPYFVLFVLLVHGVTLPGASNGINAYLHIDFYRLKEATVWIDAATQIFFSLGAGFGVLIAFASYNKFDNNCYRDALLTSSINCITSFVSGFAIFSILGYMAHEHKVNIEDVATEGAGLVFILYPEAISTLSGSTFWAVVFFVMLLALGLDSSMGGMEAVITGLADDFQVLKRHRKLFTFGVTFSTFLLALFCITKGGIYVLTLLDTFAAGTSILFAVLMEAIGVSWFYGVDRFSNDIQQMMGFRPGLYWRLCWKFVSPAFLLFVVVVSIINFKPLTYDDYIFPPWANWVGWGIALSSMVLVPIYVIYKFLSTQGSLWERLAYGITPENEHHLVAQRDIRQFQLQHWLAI

5HT1B = target: T2, 5HT1B (Homo sapiens, UniProt P28222); experiment: PDSP competitive binding assay; settings: 10 µM test article; read-out: Ki: primary assay inhibition of radioligand binding, 5HT1B
T2 construct: purchased NIMH Psychoactive Drug Screening Program (PDSP), University of North Carolina at Chapel Hill
T2 sequence (P28222 whole entry): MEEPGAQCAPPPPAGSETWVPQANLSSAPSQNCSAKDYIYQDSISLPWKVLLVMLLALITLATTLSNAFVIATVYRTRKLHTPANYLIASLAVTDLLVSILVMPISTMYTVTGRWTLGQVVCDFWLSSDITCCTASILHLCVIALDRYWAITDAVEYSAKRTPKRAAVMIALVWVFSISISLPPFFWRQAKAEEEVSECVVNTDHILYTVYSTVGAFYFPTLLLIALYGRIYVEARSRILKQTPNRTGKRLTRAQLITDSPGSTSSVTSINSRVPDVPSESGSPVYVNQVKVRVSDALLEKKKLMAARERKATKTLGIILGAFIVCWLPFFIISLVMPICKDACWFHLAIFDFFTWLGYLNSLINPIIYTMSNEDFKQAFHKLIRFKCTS

Alpha2a = target: T3, Alpha2a (Homo sapiens, UniProt P08913); experiment: PDSP competitive binding assay; settings: 10 µM test article; read-out: Ki: primary assay inhibition of radioligand binding, Alpha2a
T3 construct: purchased NIMH Psychoactive Drug Screening Program (PDSP), University of North Carolina at Chapel Hill

BiP in mouse DRG neurons = experiment: BiP immunocytochemistry in cultured DRG neurons; assay type: cell-based; settings: ISRIB 200 nM
Experimental: The ICC protocol was based on a previously published protocol ([76]). […] Cells were blocked with 10% normal goat serum (NGS) in PBS-triton X (0.1%). […] Antibodies were incubated at 4 °C overnight. […] It was washed with PBS twice. […] Images were analyzed using Olympus CellSens. […] Number of cells analyzed are detailed in SI Appendix, Tables S3 and S4. […]
T his BSA gradient containing the cells was centrifuged at 900g for 5 min at room temperatur e.
The pellet containing the cells was resuspended in Br ainPhys media (STEMCell #05790) containing 2% […]
1% Gluta Max (Gibco # 350 5 0061). Hu man DRG ne uron s were plated a nd grown o n glass coverslips coate d with po ly-D-lysine (Sigma #P7405). C ultured D RG neurons were plated for 24 hours before being treated.
Methylglyoxal (Sigma- Aldrich #M0252) and F EM- 1689 were serially diluted in media.
Mouse samples - DRG cultures […]
anesthesia and decapitated. […]
section above with minor differences.
Mouse DRG neurons were grown in
SAS-0132 and DKR-1677 were […]
dissolved in 100% DMSO to a final concentr ation of 200mM and stored at - 20 °C. and DKR-1677 were serially diluted in media. Untreated media was completely replaced with media containing each compound. […]
Slides were […]
incubated with 1:2 diluted hydrogen peroxide in distilled water for 10 min at r oom temper ature and washed twice in distilled water. The protease IV was applied to each section and incubated for 5 min at room temperature. Slides were w ashed twice in 1X PBS and RNA scope was performed immediately. A mixture of probes - Tmem97, Scn10a, and Fabp7 – was hybridized for 2 hours at 40 °C in a humidity control tray

[2] = system: SNI model of neuropathic pain, wild-type and TMEM97KO mice; experiment: SNI model of neuropathic pain, von Frey mechanical hypersensitivity; assay type: in vivo, mouse; settings: for mechanical hypersensitivity after SNI (von Frey): male and female
5HT2C = 5HT2C (Homo sapiens, UniProt P28335); experiment: PDSP competitive binding assay; settings: 10 µM test article; read-out: Ki: primary assay inhibition of radioligand binding, 5HT2C
Sequence of 5HT2C (P28335 33-458): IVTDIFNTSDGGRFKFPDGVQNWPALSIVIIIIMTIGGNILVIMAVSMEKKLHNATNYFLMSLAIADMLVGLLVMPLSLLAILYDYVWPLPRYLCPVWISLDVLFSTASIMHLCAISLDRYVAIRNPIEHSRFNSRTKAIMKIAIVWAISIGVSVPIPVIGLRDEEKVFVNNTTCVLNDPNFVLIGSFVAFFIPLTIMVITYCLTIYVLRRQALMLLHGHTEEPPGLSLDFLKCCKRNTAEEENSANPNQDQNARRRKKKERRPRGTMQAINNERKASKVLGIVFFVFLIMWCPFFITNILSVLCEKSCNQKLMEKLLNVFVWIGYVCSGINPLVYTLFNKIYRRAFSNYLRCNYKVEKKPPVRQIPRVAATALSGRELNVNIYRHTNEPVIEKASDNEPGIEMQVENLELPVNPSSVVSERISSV

DOR = DOR (Homo sapiens, UniProt P41143); experiment: PDSP competitive binding assay; settings: 10 µM test article; read-out: Ki: primary assay inhibition of radioligand binding, DOR
σ1R = σ1R (Homo sapiens, UniProt Q99720); experiment: Competition binding with [3H]-(+)-pentazocine (NIMH PDSP)
Sequence of σ1R (Q99720 whole entry): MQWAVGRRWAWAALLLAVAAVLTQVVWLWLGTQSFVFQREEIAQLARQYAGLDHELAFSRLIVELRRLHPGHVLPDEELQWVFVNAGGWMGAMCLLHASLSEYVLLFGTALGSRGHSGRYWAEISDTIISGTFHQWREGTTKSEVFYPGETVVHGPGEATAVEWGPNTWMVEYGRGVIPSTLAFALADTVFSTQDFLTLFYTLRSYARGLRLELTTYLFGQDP

D2 = D2 (Homo sapiens, UniProt P14416); experiment: PDSP competitive binding assay; settings: 10 µM test article; read-out: Ki: primary assay inhibition of radioligand binding, D2
Sequence of D2 (P14416 whole entry): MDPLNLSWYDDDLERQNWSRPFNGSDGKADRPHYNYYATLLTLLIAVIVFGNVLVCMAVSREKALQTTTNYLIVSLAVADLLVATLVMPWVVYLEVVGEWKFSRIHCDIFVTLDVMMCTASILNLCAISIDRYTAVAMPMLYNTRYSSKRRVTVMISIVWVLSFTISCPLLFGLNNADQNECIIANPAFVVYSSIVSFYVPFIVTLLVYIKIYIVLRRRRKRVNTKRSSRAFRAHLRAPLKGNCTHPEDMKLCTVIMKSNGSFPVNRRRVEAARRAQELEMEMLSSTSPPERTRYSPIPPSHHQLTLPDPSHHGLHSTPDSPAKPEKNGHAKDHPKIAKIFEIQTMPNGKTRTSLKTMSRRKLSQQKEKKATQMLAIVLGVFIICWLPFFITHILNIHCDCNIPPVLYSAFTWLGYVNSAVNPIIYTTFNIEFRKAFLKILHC

PBR = target: T4, PBR (Rattus norvegicus, UniProt P16257); experiment: PDSP competitive binding assay; settings: 10 µM test article; read-out: Ki: primary assay inhibition of radioligand binding, PBR
T4 construct: purchased NIMH Psychoactive Drug Screening Program (PDSP), University of North Carolina at Chapel Hill

SERT = target: T5, SERT (Homo sapiens, UniProt P31645); experiment: PDSP competitive binding assay; settings: 10 µM test article; read-out: Ki: primary assay inhibition of radioligand binding, SERT
T5 construct: purchased NIMH Psychoactive Drug Screening Program (PDSP), University of North Carolina at Chapel Hill
T5 sequence (P31645 whole entry): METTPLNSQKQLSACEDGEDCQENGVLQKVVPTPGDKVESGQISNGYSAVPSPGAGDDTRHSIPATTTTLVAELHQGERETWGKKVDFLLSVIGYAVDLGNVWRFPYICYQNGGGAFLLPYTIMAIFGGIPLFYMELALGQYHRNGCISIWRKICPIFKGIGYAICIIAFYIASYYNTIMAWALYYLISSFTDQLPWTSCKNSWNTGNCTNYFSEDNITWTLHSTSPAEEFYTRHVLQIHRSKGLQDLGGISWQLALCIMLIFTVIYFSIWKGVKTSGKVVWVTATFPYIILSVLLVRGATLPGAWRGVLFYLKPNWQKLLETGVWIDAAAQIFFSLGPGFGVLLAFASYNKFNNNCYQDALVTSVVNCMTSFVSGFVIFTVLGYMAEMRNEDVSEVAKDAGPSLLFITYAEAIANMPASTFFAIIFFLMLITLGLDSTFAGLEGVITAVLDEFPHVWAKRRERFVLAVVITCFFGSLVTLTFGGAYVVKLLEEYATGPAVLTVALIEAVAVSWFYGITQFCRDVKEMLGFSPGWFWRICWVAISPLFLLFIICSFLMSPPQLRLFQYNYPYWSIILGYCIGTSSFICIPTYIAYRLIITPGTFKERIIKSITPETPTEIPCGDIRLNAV

D3 = D3 (Homo sapiens, UniProt P35462); experiment: PDSP competitive binding assay; settings: 10 µM test article; read-out: Ki: primary assay inhibition of radioligand binding, D3
Sequence of D3 (P35462 whole entry): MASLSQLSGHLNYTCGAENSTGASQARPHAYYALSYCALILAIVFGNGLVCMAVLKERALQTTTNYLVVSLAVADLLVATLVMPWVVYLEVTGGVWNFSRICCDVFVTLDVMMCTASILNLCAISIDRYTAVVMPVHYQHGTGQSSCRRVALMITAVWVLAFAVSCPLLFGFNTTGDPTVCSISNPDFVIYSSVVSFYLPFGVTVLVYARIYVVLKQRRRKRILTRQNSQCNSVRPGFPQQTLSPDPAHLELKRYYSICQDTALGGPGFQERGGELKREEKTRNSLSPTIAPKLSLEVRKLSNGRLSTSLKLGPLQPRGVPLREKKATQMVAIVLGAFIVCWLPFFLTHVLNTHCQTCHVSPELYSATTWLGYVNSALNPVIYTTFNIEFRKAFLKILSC

5HT2A = 5HT2A (Homo sapiens, UniProt P28223); experiment: PDSP competitive binding assay; settings: 10 µM test article; read-out: Ki: primary assay inhibition of radioligand binding, 5HT2A
Sequence of 5HT2A (P28223 whole entry): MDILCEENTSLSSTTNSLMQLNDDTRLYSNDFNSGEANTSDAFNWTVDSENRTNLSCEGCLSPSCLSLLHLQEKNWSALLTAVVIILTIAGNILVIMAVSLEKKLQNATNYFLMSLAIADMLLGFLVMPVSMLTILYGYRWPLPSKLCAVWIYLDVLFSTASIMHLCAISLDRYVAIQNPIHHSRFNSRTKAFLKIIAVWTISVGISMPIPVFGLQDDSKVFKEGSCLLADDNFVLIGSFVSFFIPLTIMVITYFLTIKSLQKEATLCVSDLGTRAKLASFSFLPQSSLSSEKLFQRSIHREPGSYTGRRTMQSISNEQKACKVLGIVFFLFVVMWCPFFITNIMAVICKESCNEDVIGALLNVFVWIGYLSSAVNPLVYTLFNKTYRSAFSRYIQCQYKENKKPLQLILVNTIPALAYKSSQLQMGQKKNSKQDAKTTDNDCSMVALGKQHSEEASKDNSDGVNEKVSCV

5HT7 = target: T6, 5HT7 (Homo sapiens, UniProt P34969); experiment: PDSP competitive binding assay; settings: 10 µM test article; read-out: Ki: primary assay inhibition of radioligand binding, 5HT7
T6 construct: purchased NIMH Psychoactive Drug Screening Program (PDSP), University of North Carolina at Chapel Hill

5HT1e = 5HT1e (Homo sapiens, UniProt P28566); experiment: PDSP competitive binding assay; settings: 10 µM test article; read-out: Ki: primary assay inhibition of radioligand binding, 5HT1e
Sequence of 5HT1e (P28566 whole entry): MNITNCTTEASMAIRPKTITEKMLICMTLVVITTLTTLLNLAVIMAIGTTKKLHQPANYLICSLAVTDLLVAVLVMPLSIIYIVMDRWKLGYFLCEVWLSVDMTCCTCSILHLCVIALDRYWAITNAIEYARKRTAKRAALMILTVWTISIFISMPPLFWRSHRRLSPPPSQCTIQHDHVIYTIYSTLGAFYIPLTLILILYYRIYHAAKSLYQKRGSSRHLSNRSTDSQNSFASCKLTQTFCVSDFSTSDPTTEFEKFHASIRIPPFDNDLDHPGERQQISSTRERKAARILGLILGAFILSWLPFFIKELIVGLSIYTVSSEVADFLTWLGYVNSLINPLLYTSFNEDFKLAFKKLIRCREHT

Alpha2c = target: T7, Alpha2c (Homo sapiens, UniProt P18825); experiment: PDSP competitive binding assay; settings: 10 µM test article; read-out: Ki: primary assay inhibition of radioligand binding, Alpha2c
T7 construct: purchased NIMH Psychoactive Drug Screening Program (PDSP), University of North Carolina at Chapel Hill

M5 = target: T8, M5 (Homo sapiens, UniProt P08912); experiment: PDSP competitive binding assay; settings: 10 µM test article; read-out: Ki: primary assay inhibition of radioligand binding, M5
T8 construct: purchased NIMH Psychoactive Drug Screening Program (PDSP), University of North Carolina at Chapel Hill
T8 sequence (P08912 whole entry): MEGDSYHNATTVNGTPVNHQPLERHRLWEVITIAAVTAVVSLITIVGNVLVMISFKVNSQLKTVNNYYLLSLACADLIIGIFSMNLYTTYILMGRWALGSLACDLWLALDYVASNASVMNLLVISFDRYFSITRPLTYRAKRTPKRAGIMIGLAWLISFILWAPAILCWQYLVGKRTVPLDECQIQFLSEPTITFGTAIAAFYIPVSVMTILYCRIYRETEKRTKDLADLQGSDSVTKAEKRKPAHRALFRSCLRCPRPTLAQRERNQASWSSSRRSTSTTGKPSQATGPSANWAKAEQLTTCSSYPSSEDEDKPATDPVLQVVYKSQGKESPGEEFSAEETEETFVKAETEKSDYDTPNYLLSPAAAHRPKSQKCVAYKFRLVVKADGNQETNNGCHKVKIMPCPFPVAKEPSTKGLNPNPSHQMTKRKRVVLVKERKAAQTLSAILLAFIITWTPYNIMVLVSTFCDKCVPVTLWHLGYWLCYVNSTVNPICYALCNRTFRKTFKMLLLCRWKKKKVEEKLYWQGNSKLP

5HT6 = 5HT6 (Homo sapiens, UniProt P50406); experiment: PDSP competitive binding assay; settings: single determination
Sequence of 5HT6 (P50406 whole entry, species assumed): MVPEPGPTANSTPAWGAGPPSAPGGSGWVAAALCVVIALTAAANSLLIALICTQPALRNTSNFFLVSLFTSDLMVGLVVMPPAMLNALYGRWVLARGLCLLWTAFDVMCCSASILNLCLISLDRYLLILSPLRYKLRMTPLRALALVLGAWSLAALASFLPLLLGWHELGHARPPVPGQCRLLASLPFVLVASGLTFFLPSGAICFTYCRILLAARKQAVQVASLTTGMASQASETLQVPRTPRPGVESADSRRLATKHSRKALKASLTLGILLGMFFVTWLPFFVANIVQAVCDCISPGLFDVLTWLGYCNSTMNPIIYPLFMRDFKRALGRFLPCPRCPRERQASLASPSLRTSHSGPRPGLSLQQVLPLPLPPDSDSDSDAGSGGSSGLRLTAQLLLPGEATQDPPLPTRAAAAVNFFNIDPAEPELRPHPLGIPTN

In the case of OCCCN1CC[C@@H]2C[C@H]1c1cc(-c3ccc(C(F)(F)F)cc3)ccc12 [FEM-1689], the p-eIF2α levels ([1]; 10 and 100 nM, 16 h) is reported as “significantly reduced p-eIF2α levels”, the “MGO-induced increase in p-eIF2α” value ([1]; cotreatment MGO 1 µM and FEM-1689 100 nM) is reported as “prevented this increase; also recorded: prevented an increase in p-eIF2α” and the inhibition at 10 µM (Beta1) is reported as < 50%. It also gave a Ki (NET; Ki, NET, Run 1) of 0.668 µM, a Ki (NET; Ki, NET, Run 2) of 0.221 µM and a Ki (NET; Ki, NET, Run 3) of 0.209 µM. For the same compound, the Ki (NET; Ki, NET, Run 4) was 0.519 µM, the “selectivity for σ2R/TMEM97 vs NET” value (NET; ratio of Ki) was 24 fold and the Ki (NET; read-out: NET Ki, average of four Ki determinations) was 0.405 ± 0.227 µM. For the same compound, the inhibition at 10 µM (5HT1B) was < 50%, the inhibition at 10 µM (Alpha2a) was < 50% and the BiP levels (BiP in mouse DRG neurons; TMEM97KO mouse DRG neurons) was “una ffecte d; also recorded: did not reduce levels of BiP”. The BiP levels (BiP in mouse DRG neurons; wild-type mouse DRG neurons) was “reduced at a high concentration of 1000 nM”, the “mechanical hypersensitivity after SNI (von Frey)” value ([2]; single 10 mg/kg IV, 30 d after SNI, wild-type and TMEM97KO, 7 d, 10 mg/kg) was “little or no change for mechanical sensitivity in either group; also recorded: not sufficient to reduce mechanical hypersensitivity” and the “mechanical hypersensitivity after SNI (von Frey)” value ([2]; single 20 mg/kg IV, TMEM97KO mice, 20 mg/kg) was “failed to reduce mechanical hypersensitivity”. For the same compound, the “duration of reversal of mechanical hypersensitivity” value ([2]; single 20 mg/kg IV, wild-type mice) was “roughly 4 d”, the “mechanical hypersensitivity after SNI (von Frey)” value ([2]; single 20 mg/kg IV, wild-type mice, 20 mg/kg) was “effectively reversed mechanical hypersensitivity; also recorded: maximal antinociceptive effect” and the inhibition at 10 µM (5HT2C) was < 50%. The inhibition at 10 µM (DOR) was < 50%, the Ki (σ1R) was 0.206 µM and the “selectivity for σ2R/TMEM97 vs σ1R” value (σ1R; ratio of Ki) was 10 fold. For the same compound, the Ki (σ1R; read-out: σ1R Ki, averages ± SD) was 0.167 ± 0.054 µM, the inhibition at 10 µM (D2) was < 50% and the inhibition at 10 µM (PBR) was < 50%. For the same compound, the inhibition at 10 µM (SERT) was < 50%, the inhibition at 10 µM (D3) was < 50% and the inhibition at 10 µM (5HT2A) was < 50%. For the same compound, the inhibition at 10 µM (5HT7) was < 50%, the inhibition at 10 µM (5HT1e) was < 50% and the inhibition at 10 µM (Alpha2c) was < 50%. The inhibition at 10 µM (M5) was < 50% and the Ki (5HT6) was > 10 µM.
